# Tested on: Tomato (Solanum lycopersicum 'Rentita')
# Assay: Root growth test of tomatoes under oxygen deficiency conditions in the nutrient solution
# Type: in vivo
# Details: 1.0 mg a.i./plant, floating box, nutrient solution not aerated (oxygen deficiency stress), average of maximum root length per plant
# Experimental: To prepare a suitable solution of the preparation, 1 part by weight of active substance is mixed with water to give the desired concentration.
# Tomato seeds (Solanum lycopersicum ‘Rentita’) are grown in rock wool. After germination, the rock wool blocks are transferred into a floating box provided with the solution of the preparation and grown on under suitable climatic conditions.
# The nutrient solution of the floating box was not aerated (oxygen deficiency stress).
# After the desired period of time, the maximum length of the root per tomato plant is measured, and the average root length per floating box and treatment is calculated.
smiles,measurement,value
CC(c1ccc(C(F)(F)F)nc1)S(C)(=O)=NC#N (stereo not shown) [Compound (I-8)],Root growth of tomatoes: Length in cm after 4 d,6.7 cm

# Reference: patent US8796175B2, “Method for enhancing plant intrinsic defense” (Bayer CropScience AG, priority 2008, dated 2014)
